According to US6737383B1, “Herbicidal oxadiazolidines” (priority 1999, dated 2004):

How the values were obtained:
[1] = test system: soybean; assay: Test B pre/postemergence soybean; assay type: in vivo, Glycine max; conditions: Preemergence, scale of 0 to 10 where 0 is no effect and 10 is complete control; for Soybean plant response rating: Rate 62 g/ha; for Plant response rating, Soybean: Rate 125 g/ha
How it was run: (§1)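 Test chemicals in a non-phytotoxic solvent mixture with surfactant were sprayed preemergence onto planted seeds and postemergence onto plants 2 to 18 cm tall (1- to 4-leaf stage). After twelve to sixteen days in a greenhouse, injury was visually rated against untreated controls from 0 (no effect) to 10 (complete control).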

[2] = test system: cocklebur; assay: Test B pre/postemergence cocklebur; assay type: in vivo, Xanthium strumarium; conditions: Preemergence; for Cocklebur plant response rating: Rate 62 g/ha
How it was run: as §1

[3] = test system: purple nutsedge; assay: Test B pre/postemergence purple nutsedge; assay type: in vivo, Cyperus rotundus; conditions: Preemergence, scale of 0 to 10 where 0 is no effect and 10 is complete control; for Nutsedge plant response rating: Rate 62 g/ha; for Plant response rating, Nutsedge: Rate 125 g/ha
How it was run: as §1

[4] = test system: blackgrass; assay: Test B pre/postemergence blackgrass; assay type: in vivo, Alopecurus myosuroides; conditions: Preemergence; for Blackgrass plant response rating: Rate 62 g/ha
How it was run: as §1

[5] = test system: rape; assay: Test B pre/postemergence rape; assay type: in vivo, Brassica napus; conditions: Preemergence, scale of 0 to 10 where 0 is no effect and 10 is complete control; for Rape plant response rating: Rate 62 g/ha; for Plant response rating, Rape: Rate 125 g/ha
How it was run: as §1

[6] = test system: wild oat; assay: Test B pre/postemergence wild oat; assay type: in vivo, Avena fatua; conditions: Preemergence, scale of 0 to 10 where 0 is no effect and 10 is complete control; for Wild oats plant response rating: Rate 62 g/ha; for Plant response rating, Wild oats: Rate 125 g/ha
How it was run: as §1

[7] = test system: bedstraw; assay: Test B pre/postemergence bedstraw; assay type: in vivo, Galium aparine; conditions: Preemergence; for Bedstraw plant response rating: Rate 62 g/ha
How it was run: as §1

[8] = test system: crabgrass; assay: Test B pre/postemergence crabgrass; assay type: in vivo, Digitaria sanguinalis; conditions: Preemergence; for Crabgrass plant response rating: Rate 62 g/ha
How it was run: as §1

[9] = test system: wheat; assay: Test B pre/postemergence wheat; assay type: in vivo, Triticum aestivum; conditions: Preemergence, scale of 0 to 10 where 0 is no effect and 10 is complete control; for Wheat plant response rating: Rate 62 g/ha; for Plant response rating, Wheat: Rate 125 g/ha
How it was run: as §1

[10] = test system: velvetleaf; assay: Test B pre/postemergence velvetleaf; assay type: in vivo, Abutilon theophrasti; conditions: Preemergence, scale of 0 to 10 where 0 is no effect and 10 is complete control; for Velvetleaf plant response rating: Rate 62 g/ha; for Plant response rating, Velvetleaf: Rate 125 g/ha
How it was run: as §1

[11] = test system: giant foxtail; assay: Test B pre/postemergence giant foxtail; assay type: in vivo, Setaria faberii; conditions: Preemergence, scale of 0 to 10 where 0 is no effect and 10 is complete control; for Giant foxtail plant response rating: Rate 62 g/ha; for Plant response rating, Giant foxtail: Rate 125 g/ha
How it was run: as §1

[12] = test system: surinam grass; assay: Test B pre/postemergence surinam grass; assay type: in vivo, Brachiaria decumbens; conditions: Preemergence; for B. signalgrass plant response rating: Rate 62 g/ha
How it was run: as §1

[13] = test system: morningglory; assay: Test B pre/postemergence morningglory; assay type: in vivo, Ipomoea hederacea; conditions: Preemergence, scale of 0 to 10 where 0 is no effect and 10 is complete control; for Morningglory plant response rating: Rate 62 g/ha; for Plant response rating, Morningglory: Rate 125 g/ha
How it was run: as §1

[14] = test system: pigweed; assay: Test B pre/postemergence pigweed; assay type: in vivo, Amaranthus retroflexus; conditions: Preemergence, scale of 0 to 10 where 0 is no effect and 10 is complete control; for Redroot pigweed plant response rating: Rate 62 g/ha; for Plant response rating, Redroot pigweed: Rate 125 g/ha
How it was run: as §1

[15] = test system: sugar beet; assay: Test B pre/postemergence sugar beet; assay type: in vivo, Beta vulgaris; conditions: Preemergence, scale of 0 to 10 where 0 is no effect and 10 is complete control; for Sugarbeets plant response rating: Rate 62 g/ha; for Plant response rating, Sugarbeets: Rate 125 g/ha
How it was run: as §1

[16] = test system: corn; assay: Test B pre/postemergence corn; assay type: in vivo, Zea mays; conditions: Preemergence; for Corn plant response rating: Rate 62 g/ha
How it was run: as §1

[17] = scale of 0 to 10 where 0 is no effect and 10 is complete control
[18] = Rate 125 g/ha, scale of 0 to 10 where 0 is no effect and 10 is complete control
[19] = Rate 250 g/ha, scale 0 to 10 (0 no effect, 10 complete control)
[20] = Rate 500 g/ha, scale of 0 to 10 where 0 is no effect and 10 is complete control

CCC(C)N(C(=O)n1oc(=O)n(C(C)C)c1=O)c1ccc(F)cc1 (stereo not drawn) [Compound 689]
Soybean plant response rating [1]: 0
Plant response rating, Soybean [1]: 0
Cocklebur plant response rating [2, 17]: 0
Plant response rating, Cocklebur [2, 18]: 0
Plant response rating, Cocklebur [2, 19]: 0
Plant response rating, Cocklebur [2, 20]: 0
Nutsedge plant response rating [3]: 0
Plant response rating, Nutsedge [3]: 0
Blackgrass plant response rating [4, 17]: 9
Plant response rating, Blackgrass [4, 18]: 9
Plant response rating, Blackgrass [4, 19]: 10
Plant response rating, Blackgrass [4, 20]: 10
Rape plant response rating [5]: 0
Plant response rating, Rape [5]: 0
Wild oats plant response rating [6]: 7
Plant response rating, Wild oats [6]: 9
Bedstraw plant response rating [7, 17]: 0
Plant response rating, Bedstraw [7, 18]: 0
Plant response rating, Bedstraw [7, 19]: 7
Plant response rating, Bedstraw [7, 20]: 5
Crabgrass plant response rating [8, 17]: 9
Plant response rating, Crabgrass [8, 18]: 9
Plant response rating, Crabgrass [8, 19]: 10
Wheat plant response rating [9]: 0
Plant response rating, Wheat [9]: 0
Velvetleaf plant response rating [10]: 2
Plant response rating, Velvetleaf [10]: 3
Giant foxtail plant response rating [11]: 10
Plant response rating, Giant foxtail [11]: 10
B. signalgrass plant response rating [12, 17]: 2
Plant response rating, B. signalgrass [12, 18]: 4
Plant response rating, B. signalgrass [12, 19]: 9
Plant response rating, B. signalgrass [12, 20]: 10
Morningglory plant response rating [13]: 0
Plant response rating, Morningglory [13]: 3
Redroot pigweed plant response rating [14]: 3
Plant response rating, Redroot pigweed [14]: 7
Sugarbeets plant response rating [15]: 0
Plant response rating, Sugarbeets [15]: 2
Corn plant response rating [16, 17]: 0
Plant response rating, Corn [16, 18]: 6
Plant response rating, Corn [16, 19]: 9

CC(C)N(C(=O)n1oc(=O)n(C(C)C(=O)N2CCOCC2)c1=O)c1ccc(Cl)cc1 (stereo not drawn) [Compound 703]
Soybean plant response rating [1]: 0
Plant response rating, Soybean [1]: 0
Cocklebur plant response rating [2, 17]: 0
Plant response rating, Cocklebur [2, 18]: 0
Plant response rating, Cocklebur [2, 19]: 0
Plant response rating, Cocklebur [2, 20]: 0
Nutsedge plant response rating [3]: 0
Plant response rating, Nutsedge [3]: 0
Blackgrass plant response rating [4, 17]: 0
Plant response rating, Blackgrass [4, 18]: 3
Plant response rating, Blackgrass [4, 19]: 6
Plant response rating, Blackgrass [4, 20]: 8
Rape plant response rating [5]: 0
Plant response rating, Rape [5]: 0
Wild oats plant response rating [6]: 0
Plant response rating, Wild oats [6]: 0
Bedstraw plant response rating [7, 17]: 0
Plant response rating, Bedstraw [7, 18]: 0
Plant response rating, Bedstraw [7, 19]: 0
Plant response rating, Bedstraw [7, 20]: 0
Crabgrass plant response rating [8, 17]: 5
Plant response rating, Crabgrass [8, 18]: 8
Plant response rating, Crabgrass [8, 19]: 9
Wheat plant response rating [9]: 0
Plant response rating, Wheat [9]: 0
Velvetleaf plant response rating [10]: 0
Plant response rating, Velvetleaf [10]: 0
Giant foxtail plant response rating [11]: 5
Plant response rating, Giant foxtail [11]: 7
B. signalgrass plant response rating [12, 17]: 2
Plant response rating, B. signalgrass [12, 18]: 3
Plant response rating, B. signalgrass [12, 19]: 3
Plant response rating, B. signalgrass [12, 20]: 8
Morningglory plant response rating [13]: 0
Plant response rating, Morningglory [13]: 0
Redroot pigweed plant response rating [14]: 0
Plant response rating, Redroot pigweed [14]: 4
Sugarbeets plant response rating [15]: 0
Plant response rating, Sugarbeets [15]: 0
Corn plant response rating [16, 17]: 0
Plant response rating, Corn [16, 18]: 0
Plant response rating, Corn [16, 19]: 0
